The source of these data is publication PMC11087509, “Multimodal binding and inhibition of bacterial ribosomes by the antimicrobial peptides Api137 and Api88” (Nature Communications, 2024).

One test addresses T1, 50S subunit (Escherichia coli, UniProt P0A7M6+P0ADZ0+P60723+P61175).
T1 construct: Ribosomes were isolated from the E. coli strain MRE600; made in house; native subunits isolated in house
In words: Cryo-EM of 50S•Api137 and 50S•Api88 complexes. It counts as binding, E. coli. Particulars: 50S 0.3 µM, peptide 30 µM, Tico buffer pH 7.6, room temperature, 20 min. The protocol:
Several hundred grams of log-phase cells were commercially produced and purchased. Cells were washed in buffer A (20 mmol/L HEPES (pH 7.6), 6 mmol/L MgAc2, 30 mmol/L AcOK, 4 mmol/L ß-mercaptoethanol) and lysed in an M-110L microfluidizer (Microfluidics) at 17,000 psi and 4 °C. Cell debris was removed by low-speed centrifugation (15,000× g, 10 min, 4 °C) to obtain S30 lysate. Crude ribosomes, mostly containing 70S ribosomes, were pelleted by ultracentrifugation (40,000× g, 17 h, 4 °C) and resuspended in buffer A. The 70S ribosomes were separated from 30S and 50S subunits by zonal ultracentrifugation (Beckman Ti-15; 6–40% sucrose gradient in buffer A, 44,000× g, 16 h, 4 °C). The 70S-containing fractions were collected, and the ribosomes were sedimented by ultracentrifugation (40,000× g, 17 h, 4 °C). […]
Purified 50S subunits (0.3 µM) were incubated with Api137 or Api88 (30 µM) in Tico buffer (20 mM HEPES/KOH, pH 7.6, 30 mM AcOK, 6 mM Mg(AcO)2, 4 mM 2-mercaptoethanol) at room temperature for 20 min. The complexes were applied to glow-discharged (Pelco Easy Glow) holey carbon grids (400 Mesh Cu R2/2, Quantifoil MicroTools GmbH) and plunge-frozen in liquid ethane using a Vitrobot Mark IV (Thermo Fisher Scientific) device. […]

In another test the target is DnaK. Particulars: read-out: Kd (DnaK); peer review response; cited from earlier work. The source says: We now introduce trigger factor in line 446 as “…molecular chaperone…” In addition, we hypothesize that Api88 binds to the ribosome within the contact area of TF, which interacts with uL23 and uL29, two proteins we report here as cross-linked to Api88.
In the next test the test system is Gram-negative bacteria. The settings on record: cited from earlier work. The source says: Here we have focused on two structurally modified versions of apidaecin 1b ([…]), which was originally isolated from the western honeybee (Apis mellifera).
The next test has as its target recombinant TF. The settings on record: fluorescence polarization; cited from earlier work. The source says: Binding sites two and three are close to uL23 and uL29, which is also supported by Api88(Y7B) cross-links. These ribosomal proteins are located adjacent to the PET exit and are binding hubs for the molecular chaperone trigger factor (TF)[34] and the signal recognition particle (SRP), a universally conserved and essential cellular machinery that directs proteins destined for membrane integration to the plasma membrane[35],[36]. This co-translational targeting is initiated by a hydrophobic signal sequence in the nascent protein chain recognized by SRP as it exits the PET. It is appealing to hypo ...
Background: Polarisation of emitted light reports the rotation of a fluorescent probe.

Where a SMILES comes first, the peptide text is derived from it. The star is where a group is joined. Orn(α-tetramethylguanidino) = CN(C)C(=N[C@@H](CCCN)C(=O)*)N(C)C

Take `CC[C@H](C)[C@H](NC(=O)[C@H](Cc1ccc(O)cc1)NC(=O)[C@@H](NC(=O)[C@@H]1CCCN1C(=O)[C@H](CCCNC(=N)N)NC(=O)[C@H](CC(N)=O)NC(=O)[C@H](CC(N)=O)NC(=O)[C@H](CCCN)N=C(N(C)C)N(C)C)C(C)C)C(=O)N1CCC[C@H]1C(=O)N[C@@H](CCCNC(=N)N)C(=O)N1CCC[C@H]1C(=O)N[C@@H](CCCNC(=N)N)C(=O)N1CCC[C@H]1C(=O)N1CCC[C@H]1C(=O)N[C@@H](Cc1c[nH]cn1)C(=O)N1CCC[C@H]1C(=O)N[C@@H](CCCNC(=N)N)C(=O)N[C@@H](CC(C)C)C(=O)O` [Api137] ({Orn(α-tetramethylguanidino)}-NNRPVYIPRPRPPHPRL-OH): the “binding sites identified on 50S” value on 50S subunit is recorded as “another apidaecin molecule in an unexpected location near the exit of the PET”. Further, the Kd at DnaK was about 5 µM; on recombinant TF, over 100 µM. In addition, the “antimicrobial activity (Api137 and Api88 compared)” value with Gram-negative bacteria (Api137 and Api88) is on record as “comparable level of antimicrobial activity”. In the test with Gram-negative bacteria (against Gram-negative bacteria), the antibacterial activity entry is recorded as “enhanced antibacterial activity”.

For orientation: Kd means the constant that tells how readily two partners part at equilibrium.
